Results as given in article PMC6391970, “Design, Synthesis and Characterization of Covalent KDM5 Inhibitors” (Angewandte Chemie (International Ed. in English), 2018).

Tested on: HEK-293 cells
Assay: Cytotoxicity assessment, Cell Titer-Glo, 72 hours
Type: cell-based, human
Details: CTG viability at 72 hrs
Description: Immunofluorescence‐based assays have been previously used to analyse global changes in H3K4me3 as a measure of KDM5 activity, but the global change can be affected by other factors such as cytotoxicity.17 We therefore employed chromatin immunoprecipitation and sequencing (ChIP‐seq) as a more accurate method to quantify the H3K4me3 level at transcriptional start sites (TSS) as a read‐out for inhibition of KDM5 activity. […] Compounds 4, 7 and 9 were selected for H3K4me3 ChIP‐seq experiments and quantification.18 […]
Covalent binding RapidFire
Recombinant KDM5B (MW = 55152 Da) was incubated at 1 μM with the appropriate compound at 10 μM for 2 hours at 37 °C in 50 mM MES buffer at pH 7.0. Samples were injected in RapidFire 365 and MS was detected in QTOF mass spectrometer. Data were acquire and analysed with Agilent Mass Hunter software. […]
Digestion with elastase (1 µL) overnight at 37 °C followed by purification with SEP-PAK C18 columns and resuspension of the final sample in 98% MilliQ-H20 2% CH3CN 0.1% TFA gave the final sample ready to inject. […]
NanoBRET™ Nano-Glo® substrate (Promega UK) and Extracellular NanoLuc Inhibitor (Promega UK) were added at final concentrations of 10 and 20 µM, respectively. Readings were performed within 5 minutes using a PHERAstar FSX (BMG Labtech) with 450 and 610 nm filters. […] BRET ratios are expressed as milliBRET units (mBU), where 1 mBU corresponds to […]

CN(CCc1cnn(-c2nccc3c(=O)[nH]cnc23)c1)Cc1cccc(NC(=O)CCl)c1 [Compound 5]
cytotoxicity in HEK cells: with the exception of 5, compounds were not cytotoxic
